Test results reported in patent US20250326771A1, “PIPERAZINE DERIVATIVES USEFUL IN HIV THERAPY” (VIIV HEALTHCARE COMPANY, priority 2022, published 2025).
pIC50: −log10 of the molar value.

Experiments:
cIAP2-BIR2 = cIAP2-BIR2 (Homo sapiens (Human), UniProt Q13489); assay: BIR binding assay (FRET competition), cIAP2 BIR2
How it was run: (§1)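 Compounds tested as 15-point, 3-fold series displacing 200 nM AlexaFluor647-labelled SMAC peptide from His-tagged BIR domain (cIAP1-BIR3 50 nM; cIAP1-BIR2 and cIAP2-BIR2 325 nM; XIAP-BIR3 100 nM), pH 7.4, 60 min. Eu-W1024 (2 nM) added 30 min; emission ratio fitted for IC50.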

cIAP2-BIR3 = cIAP2-BIR3 (Homo sapiens (Human), UniProt Q13489); assay: BIR binding assay (FRET competition), cIAP2 BIR3; conditions: for cIAP2 BIR3 vs BIR2 separation window: fold separation (FS) for cIAP2
Sequence of cIAP2-BIR3 (Q13489 238-349): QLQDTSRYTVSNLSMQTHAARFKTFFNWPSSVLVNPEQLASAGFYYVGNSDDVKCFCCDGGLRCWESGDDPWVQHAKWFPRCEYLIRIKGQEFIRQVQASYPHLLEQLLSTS

cIAP1-BIR2 = cIAP1-BIR2 (Homo sapiens (Human), UniProt Q13490); assay: BIR binding assay (FRET competition), cIAP1 BIR2
Sequence of cIAP1-BIR2 (Q13490 173-257): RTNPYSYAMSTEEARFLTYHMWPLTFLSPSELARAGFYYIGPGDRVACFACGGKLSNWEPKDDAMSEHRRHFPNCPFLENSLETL
How it was run: as §1

XIAP-BIR3 = XIAP-BIR3 (Homo sapiens (Human), UniProt P98170); assay: BIR binding assay (FRET competition), XIAP BIR3; conditions: for XIAP BIR3 vs BIR2 separation window: fold separation (FS) for XIAP
Sequence of XIAP-BIR3 (P98170 241-356): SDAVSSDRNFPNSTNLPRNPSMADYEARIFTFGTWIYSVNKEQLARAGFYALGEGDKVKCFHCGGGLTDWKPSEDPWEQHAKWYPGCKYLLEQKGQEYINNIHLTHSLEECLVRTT
How it was run: as §1

cIAP1-BIR3 = cIAP1-BIR3 (Homo sapiens (Human), UniProt Q13490); assay: BIR binding assay (FRET competition), cIAP1 BIR3; conditions: for cIAP1 BIR3 vs BIR2 separation window: fold separation (FS) for cIAP1
Sequence of cIAP1-BIR3 (Q13490 253-363): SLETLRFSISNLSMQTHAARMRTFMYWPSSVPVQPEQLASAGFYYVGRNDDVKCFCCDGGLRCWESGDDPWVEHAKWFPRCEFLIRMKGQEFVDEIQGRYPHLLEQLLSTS
How it was run: as §1

XIAP-BIR2 = XIAP-BIR2 (Homo sapiens (Human), UniProt P98170); assay: BIR binding assay (FRET competition), XIAP BIR2; conditions: FRET competition binding; for IC50: read-out: XIAP BIR2 (pIC50) (converted)
Sequence of XIAP-BIR2 (P98170 124-240): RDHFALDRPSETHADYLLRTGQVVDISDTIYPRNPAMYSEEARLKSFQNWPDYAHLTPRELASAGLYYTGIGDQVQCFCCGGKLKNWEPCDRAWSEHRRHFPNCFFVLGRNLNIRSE
How it was run: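 Competitive TR-FRET used His-tagged XIAP-BIR2 (200 nM) and 200 nM AlexaFluor647-labelled AVPIAQKSE SMAC peptide in HEPES buffer pH 7.4 with CHAPS, glycerol and DTT, incubated 60 min before 30 min with 2 nM Eu-W1024. The 615/665 nm ratio from a 15-point, 3-fold series was fit with a four-parameter model for IC50/pIC50.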

[1] = system: Jurkat HIV-luciferase clones; assay: Jurkat latency reversal assay; type: cell-based; conditions: Homo sapiens, 48 h; Jurkat latency reversal assay potency; read-out: Jurkat pEC50 (converted)
How it was run: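 Compounds are titrated 3-fold over 14 points from 10 μM in duplicate at 0.5% DMSO. Clones C16, 115 and N6, grown with 500 nM EFV, are co-incubated for 48 h at 37° C. Virally driven luciferase is read by luminescence, and EC50 and maximal percent activation versus vehicle come from a four-parameter model.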

Sequence of cIAP2-BIR2 (Q13489 158-242): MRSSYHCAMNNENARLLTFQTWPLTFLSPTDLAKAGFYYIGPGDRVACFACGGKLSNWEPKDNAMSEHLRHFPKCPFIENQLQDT

SMILES	pIC50 (cIAP2-BIR2)	pIC50 (cIAP2-BIR3)	cIAP2 BIR3 vs BIR2 separation window (cIAP2-BIR3)	pIC50 (cIAP1-BIR2)	pIC50 (XIAP-BIR3)	XIAP BIR3 vs BIR2 separation window (XIAP-BIR3)	pIC50 (cIAP1-BIR3)	cIAP1 BIR3 vs BIR2 separation window (cIAP1-BIR3)	IC50 (XIAP-BIR2) [µM]	EC50 [1] [nM]	XIAP BIR2 (pIC50) (XIAP-BIR2)
C[C@@H]1CN(CC(=O)N2CC(C)(C)c3[nH]c(=O)c(Cc4ccc(F)cc4)cc32)[C@@H](CN2CCN(C(=O)c3ccc4cc(C(=O)N5CCN(C[C@H]6CN[C@H](C)CN6CC(=O)N6CC(C)(C)c7[nH]c(=O)c(Cc8ccc(F)cc8)cc76)[C@H](C)C5)ccc4c3)C[C@H]2C)CN1 [Example 18, 1,1′-(2,2′-((3R,3′R,6R,6′R)-(((2R,2′R)-(naphthalene-2,6-dicarbonyl)bis(2-methylpiperazine-4,1-diyl))bis(methylene))bis(3-methylpiperazine-6,1-diyl))bis(acetyl))bis(6-(4-fluorobenzyl)-3,3-dimethyl-1,2,3,4-tetrahydro-5H-pyrrolo[3,2-b]pyridin-5-one)]	5.50 to 6.00	8.10 to 8.86	+++ (10,000>FS>1,000)	5.50 to 6.00	8.10 to 8.86	++++ (FS>10,000)	8.10 to 8.86	+++ (10,000>FS>1,000)	10 to 51.3	12.6 to 63.1	
C[C@@H]1CN(CC(=O)N2CC(C)(C)c3[nH]c(=O)c(Cc4ccc(F)cc4)cc32)[C@@H](CN2CCN(C(=O)c3ccc(C(=O)N4CCN(C[C@H]5CN[C@H](C)CN5CC(=O)N5CC(C)(C)c6[nH]c(=O)c(Cc7ccc(F)cc7)cc65)[C@H](C)C4)cc3)C[C@H]2C)CN1 [Example 19, 1,1′-(2,2′-((3R,3′R,6R,6′R)-(((2R,2′R)-terephthaloylbis(2-methylpiperazine-4,1-diyl))bis(methylene))bis(3-methylpiperazine-6,1-diyl))bis(acetyl))bis(6-(4-fluorobenzyl)-3,3-dimethyl-1,2,3,4-tetrahydro-5H-pyrrolo[3,2-b]pyridin-5-one)]	6.00 to 7.65	8.10 to 8.86	+++ (10,000>FS>1,000)	6.00 to 7.65	8.10 to 8.86	++++ (FS>10,000)	8.10 to 8.86	+++ (10,000>FS>1,000)		63.1 to 316	+ (4.29<pIC50<=5.00)
C[C@@H]1CN(CC(=O)N2CC(C)(C)c3[nH]c(=O)c(Cc4ccc(F)cc4)cc32)[C@@H](CN2CCN(C(=O)c3ccnc(-c4cc(C(=O)N5CCN(C[C@H]6CN[C@H](C)CN6CC(=O)N6CC(C)(C)c7[nH]c(=O)c(Cc8ccc(F)cc8)cc76)[C@H](C)C5)ccn4)c3)C[C@H]2C)CN1 [Example 23, 1,1′-(2,2′-((3R,3′R,6R,6′R)-(((2R,2′R)-([2,2′-bipyridine]-4,4′-dicarbonyl)bis(2-methylpiperazine-4,1-diyl))bis(methylene))bis(3-methylpiperazine-6,1-diyl))bis(acetyl))bis(6-(4-fluorobenzyl)-3,3-dimethyl-1,2,3,4-tetrahydro-5H-pyrrolo[3,2-b]pyridin-5-one)]	5.50 to 6.00	8.10 to 8.86		5.50 to 6.00	8.10 to 8.86		8.10 to 8.86		10 to 51.3	63.1 to 316	
C[C@@H]1CN(CC(=O)N2CC(C)(C)c3[nH]c(=O)c(Cc4ccc(F)cc4)cc32)[C@@H](CN2CCN(Cc3c(F)c(F)c(CN4CCN(C[C@H]5CN[C@H](C)CN5CC(=O)N5CC(C)(C)c6[nH]c(=O)c(Cc7ccc(F)cc7)cc65)[C@H](C)C4)c(F)c3F)C[C@H]2C)CN1 [Example 28, 1,1′-(2,2′-((3R,3′R,6R,6′R)-(((2R,2′R)-((perfluoro-1,4-phenylene)bis(methylene))bis(2-methylpiperazine-4,1-diyl))bis(methylene))bis(3-methylpiperazine-6,1-diyl))bis(acetyl))bis(6-(4-fluorobenzyl)-3,3-dimethyl-1,2,3,4-tetrahydro-5H-pyrrolo [3,2-b]pyridin-5-one)]	5.00 to 5.50	7.50 to 7.80	+++ (10,000>FS>1,000)	5.50 to 6.00	6.30 to 7.50	+++ (10,000>FS>1,000)	7.50 to 7.80	+++ (10,000>FS>1,000)	10 to 51.3	316 to 3310	
